Source: patent US4160829A, “Antibacterial 1,2,4-oxadiazolylacetamido cephalosporins” (Gist-Brocades N.V., priority 1972, dated 1979)
≈ marks a conversion by molar mass, not a printed value.

Key:
Kleb.pneum. A 809 = assay: agar serial dilution test; assay type: cell-based, Klebsiella pneumoniae; settings: Klebsiella pneumoniae; agar serial dilution, 24 hours, 37° C.; read-out: minimal inhibitory concentration (MIC)
Dipl.pneum. L 54 = assay: agar serial dilution test; assay type: cell-based, Diplococcus pneumoniae; settings: Streptococcus pneumoniae; agar serial dilution, 24 hours, 37° C.; read-out: minimal inhibitory concentration (MIC)
Prot.mirab. A 1200 = assay: agar serial dilution test; assay type: cell-based, Proteus mirabilis; settings: Proteus mirabilis, 24 h, agar serial dilution, 24 hours, 37° C.; read-out: minimal inhibitory concentration (MIC)
Staph.aureus A 2000 [1] = assay: agar serial dilution test; assay type: cell-based, Staphylococcus aureus; settings: Staphylococcus aureus, A2000, 24 h, agar serial dilution, 24 hours, 37° C.; read-out: minimal inhibitory concentration (MIC)
Staph.aureus A 2001 [2] = assay: agar serial dilution test; assay type: cell-based, Staphylococcus aureus; settings: Staphylococcus aureus, A2001, 24 h, agar serial dilution, 24 hours, 37° C.; read-out: minimal inhibitory concentration (MIC)
Salm.typh. R 172 = assay: agar serial dilution test; assay type: cell-based; settings: 24 h, read-out: minimal inhibitory concentration (MIC)
Strep. faec. L 80 = assay: agar serial dilution test; assay type: cell-based, Streptococcus faecalis; settings: Enterococcus faecalis; agar serial dilution, 24 hours, 37° C.; read-out: minimal inhibitory concentration (MIC)
Past.multo. A 723 = assay: agar serial dilution test; assay type: cell-based, Pasteurella multocida; settings: Pasteurella multocida; agar serial dilution, 24 hours, 37° C.; read-out: minimal inhibitory concentration (MIC)
Staph.aureus A 2000 [3] = assay: micro serial dilution test; assay type: cell-based, Staphylococcus aureus; settings: Staphylococcus aureus, A2000, 18 h, micro serial dilution (in brackets), about 18 hours, 30° C. or 37° C.; read-out: minimal inhibitory concentration (MIC)
Staph.aureus A 355 [4] = assay: micro serial dilution test; assay type: cell-based, Staphylococcus aureus; settings: Staphylococcus aureus, A355; micro serial dilution (in brackets), about 18 hours, 30° C. or 37° C.; penicillinase-producing strain; read-out: minimal inhibitory concentration (MIC)
Prot.morg. 2241 = assay: agar serial dilution test; assay type: cell-based; settings: 24 h, agar serial dilution, 24 hours, 37° C.; read-out: minimal inhibitory concentration (MIC)
Staph.aureus A 321 = assay: agar serial dilution test; assay type: cell-based, Staphylococcus aureus; settings: Staphylococcus aureus, A321, 24 h, agar serial dilution, 24 hours, 37° C.; read-out: minimal inhibitory concentration (MIC)
Pseud.aerug. H 10 = assay: agar serial dilution test; assay type: cell-based; settings: agar serial dilution, 24 hours, 37° C.; read-out: minimal inhibitory concentration (MIC)
Haem.Suis A 2096 = assay: micro serial dilution test; assay type: cell-based; settings: micro serial dilution (in brackets), about 18 hours, 30° C. or 37° C.; read-out: minimal inhibitory concentration (MIC)
Actinob.equ. T 3 = assay: agar serial dilution test; assay type: cell-based; settings: 24 hours, 37° C., read-out: minimal inhibitory concentration (MIC)
Prot.mirab. H 3 = assay: agar serial dilution test; assay type: cell-based, Proteus mirabilis; settings: Proteus mirabilis; agar serial dilution, 24 hours, 37° C.; read-out: minimal inhibitory concentration (MIC)
[5] = test system: Pseud.aerug. Wyeth A 1058; assay: agar serial dilution test; assay type: cell-based; settings: agar serial dilution, 24 hours, 37° C.; read-out: minimal inhibitory concentration (MIC)
Pseud.aerug. 2396 = assay: agar serial dilution test; assay type: cell-based; settings: agar serial dilution, 24 hours, 37° C.; read-out: minimal inhibitory concentration (MIC)
Prot.rettg. A 821 = assay: agar serial dilution test; assay type: cell-based, Proteus rettgeri; settings: Providencia rettgeri, 24 h, agar serial dilution, 24 hours, 37° C.; read-out: minimal inhibitory concentration (MIC)
Esch.coli U 20 = assay: agar serial dilution test; assay type: cell-based, Escherichia coli; settings: Escherichia coli, U20; agar serial dilution, 24 hours, 37° C.; read-out: minimal inhibitory concentration (MIC)
Bruc. Suis A 2126 = assay: agar serial dilution test; assay type: cell-based; settings: Brucella suis, 24 h, read-out: minimal inhibitory concentration (MIC)
Salm.dubl. P 43 = assay: agar serial dilution test; assay type: cell-based, Salmonella dublin; settings: Salmonella enterica; agar serial dilution, 24 hours, 37° C.; read-out: minimal inhibitory concentration (MIC)
Staph.aureus A 2001 [6] = assay: micro serial dilution test; assay type: cell-based, Staphylococcus aureus; settings: Staphylococcus aureus, A2001, 18 h, micro serial dilution (in brackets), about 18 hours, 30° C. or 37° C.; read-out: minimal inhibitory concentration (MIC)
Strep.haem A 1088 = assay: agar serial dilution test; assay type: cell-based, Streptococcus haemolyticus; settings: Streptococcus, A1088, 24 hours, 37° C., read-out: minimal inhibitory concentration (MIC)
Bac.Subt.ATCC 6633 = assay: agar serial dilution test; assay type: cell-based, Bacillus subtilis; settings: Bacillus subtilis, ATCC6633, 24 h, agar serial dilution, 24 hours, 37° C.; read-out: minimal inhibitory concentration (MIC)
Staph.aureus A 355 [7] = assay: agar serial dilution test; settings: Staphylococcus aureus, A355, 24 h, read-out: minimal inhibitory concentration (MIC), agar serial dilution, 24 hours, 37° C.; penicillinase-producing strain
Prot.mirab. L 93 = assay: agar serial dilution test; assay type: cell-based, Proteus mirabilis; settings: Proteus mirabilis; agar serial dilution, 24 hours, 37° C.; read-out: minimal inhibitory concentration (MIC)
Haem.infl. A 1030 [8] = assay: micro serial dilution test; assay type: cell-based; settings: 18 h, micro serial dilution (in brackets), about 18 hours, 30° C. or 37° C.; read-out: minimal inhibitory concentration (MIC)
Strep.haem. A 266 = assay: agar serial dilution test; assay type: cell-based, Streptococcus haemolyticus; settings: Streptococcus; agar serial dilution, 24 hours, 37° C.; read-out: minimal inhibitory concentration (MIC)
Haem.infl. A 1030 [9] = assay: agar serial dilution test; assay type: cell-based; settings: 24 hours, 37° C., read-out: minimal inhibitory concentration (MIC)
Bruc.melit. A 488 = assay: microbe, parasite or virus in culture; assay type: cell-based; settings: Brucella melitensis, 24 h, read-out: minimal inhibitory concentration (MIC)
Shig.equir. T 3 = assay: agar serial dilution test; assay type: cell-based; settings: 24 h, 37° C., read-out: minimal inhibitory concentration (MIC)
pKa determined in water = assay type: physicochemical

Compound | MIC (Kleb.pneum. A 809) [µg/mL] | MIC (Dipl.pneum. L 54) [µg/mL] | MIC (Staph.aureus A 2000 [1]) [µg/mL] | MIC (Staph.aureus A 2001 [2]) [µg/mL] | MIC (Strep. faec. L 80) [µg/mL] | MIC (Past.multo. A 723) [µg/mL] | MIC (Prot.morg. 2241) [µg/mL] | MIC (Staph.aureus A 321) [µg/mL] | MIC (Pseud.aerug. H 10) [µg/mL] | MIC (Prot.mirab. H 3) [µg/mL] | MIC [5] [µg/mL] | MIC (Pseud.aerug. 2396) [µg/mL] | MIC (Prot.rettg. A 821) [µg/mL] | MIC (Esch.coli U 20) [µg/mL] | MIC (Salm.dubl. P 43) [µg/mL] | MIC (Bac.Subt.ATCC 6633) [µg/mL] | MIC (Staph.aureus A 355 [7]) [µg/mL] | MIC (Prot.mirab. L 93) [µg/mL] | MIC (Strep.haem. A 266) [µg/mL] | MIC (Haem.infl. A 1030 [9]) [µg/mL] | also measured
CCc1nc(CC(=O)N[C@@H]2C(=O)N3C(C(=O)O)=C(CSc4nnc(C)s4)CS[C@H]23)no1 [41 A, Sodium 7-[5-ethyl-1,2,4-oxadiazol-3-yl-acetamido]-3-[5-methyl-1,3,4-thiadiazol-2-yl-mercaptomethyl]-3-cephem-4-carboxylate] | 6 | 0.75 | 0.5 | 0.5 | 50 | 1.5 | 100 | 0.25 | 100 | 100 | 100 | 100 | 1.5 | 3 | 12.5 | 0.25 | 0.75 | 6 | – | – | MIC (Prot.mirab. A 1200): 100 µg/mL; MIC (Salm.typh. R 172): 50 µg/mL; MIC (Staph.aureus A 2000 [3]): 0.23 µg/mL; MIC (Staph.aureus A 355 [4]): 0.3 µg/mL; MIC (Haem.Suis A 2096): 15 µg/mL; MIC (Actinob.equ. T 3): 12.5 µg/mL; MIC (Bruc. Suis A 2126): 6 µg/mL; MIC (Staph.aureus A 2001 [6]): 0.15 µg/mL; MIC (Strep.haem A 1088): 0.06 µg/mL
CC1(C)S[C@@H]2[C@H](NC(=O)[C@H](N)c3ccccc3)C(=O)N2[C@H]1C(=O)O [Ampicillin, reference compound] | 25 (≈ 71.5 µM) | 0.06 (≈ 0.172 µM) | 1.5 (≈ 4.29 µM) | 1 (≈ 2.86 µM) | 1 (≈ 2.86 µM) | 0.25 (≈ 0.715 µM) | 12.5 (≈ 35.8 µM) | 0.12 (≈ 0.343 µM) | 125 (≈ 358 µM) | 0.9 (≈ 2.58 µM) | > 100 | 12.5 (≈ 35.8 µM) | 3 (≈ 8.59 µM) | 3 (≈ 8.59 µM) | 1.5 (≈ 4.29 µM) | 0.03 (≈ 0.0859 µM) | 6 (≈ 17.2 µM) | 0.15 (≈ 0.429 µM) | < 0.015 | < 125 | MIC (Haem.infl. A 1030 [8]): 0.5 µg/mL (≈ 1.43 µM); MIC (Bruc.melit. A 488): 1 µg/mL (≈ 2.86 µM); MIC (Shig.equir. T 3): 1 µg/mL (≈ 2.86 µM)
Cc1noc(CC(=O)O)n1 [Example 1, 3-methyl-1,2,4-oxadiazol-5-yl-acetic acid] | – | – | – | – | – | – | – | – | – | – | – | – | – | – | – | – | – | – | – | – | pKa (pKa determined in water): 3.64
Cc1nc(CC(=O)O)no1 [Example 4, 5-methyl-1,2,4-oxadiazol-3-yl-acetic acid] | – | – | – | – | – | – | – | – | – | – | – | – | – | – | – | – | – | – | – | – | pKa (pKa determined in water): ~3.4
CC1(C)S[C@@H]2[C@H](NC(=O)Cc3nc(-c4c(Cl)cccc4Cl)no3)C(=O)N2[C@H]1C(=O)O [Example 11A, 6-{[3-(2,6-dichlorophenyl)-1,2,4-oxadiazol-5-yl]-acetamido}penicillanic acid] | > 100 | 3 (≈ 6.37 µM) | 3 (≈ 6.37 µM) | – | 25 (≈ 53 µM) | 3 (≈ 6.37 µM) | > 100 | 0.06 (≈ 0.127 µM) | > 100 | > 100 | > 100 | > 100 | > 100 | > 100 | > 100 | 0.06 (≈ 0.127 µM) | 3 (≈ 6.37 µM) | > 100 | 1 (≈ 2.12 µM) | 100 (≈ 212 µM) | MIC (Bruc.melit. A 488): 3 µg/mL (≈ 6.37 µM); MIC (Shig.equir. T 3): 25 µg/mL (≈ 53 µM)
